The text below walks through data of patent publication US20200199527A1, “METHODS OF MATURATION OF HUMAN SPERMATOGONIUM” (B.G. Negev Technologies & Applications Ltd., at Ben-Gurion …, priority 2017, published 2020).

Experiment [1] has as its system Isolated testicular cells (from azoospermic adult patients). Nature of the experiment: Effect of TNFα on development of spermatogenic markers in vitro in methylcellulose culture system (MCS). The class given is cell-based, human. On the set-up: key to VASA (pre-meiotic marker) staining / PLZF (pre-meiotic marker) staining / SALL4 (pre-meiotic marker) staining / CREM (meiotic marker) staining / BOULE (meiotic marker) staining / ACROSIN (post-meiotic marker) staining: “+” indicates positive staining for the indicated marker; “−” indicates negative staining for the indicated marker. From the text: After an overnight in sperm wash media containing 30% human serum albumin at room temperature (RT), TESE specimen were re-searched for sperm and then collected into the same media and transferred to the present inventor' lab, while TEFNA specimens were transferred to Modified Human Tubal Fluid (HTF) media containing 15% serum protein substitutes and transferred to the present inventor' lab after two days at RT. For cell isolation, biopsies were cut into small pieces of ˜2 mm, and subjected to collagenase type V (2 mg/ml) (Sigma, St. Louis, Mo., USA), DNAse (8 μg/ml) (Sigma) and hyelorunidase (2 mg/ml) (Sigma) in a total volume of 4 ml for 20 minutes in a 32° C. water bath shaker. Cells were precipitated by centrifugation (300×g, 10 minutes) and suspended with 4 ml of Tryple Select (Gibco, Denmark) for 10 minutes in a shaking water bath at 32° C. Cell suspension was centrifuged (300×g, 10 minutes) and the precipitated cells were suspended in 200 μl Roswell Park Memorial Institute (RPMI) (Biological Industries, Beit Haemek, Israel) and counted. Cells were cultured (2×10^4 cells/well/500 μl) in Minimum Essential Medi (MEM) (Biological Industries) which contained sodium bicarbonate (Gibco, UK), 7.5%, L-glutamine (Biological industries) 200 mM, non-essential amino acids (Gibco, UK) 1%, penicillin/streptomycin (Biological Industries) and gentamicin (Biological Industries) (10 mg/ml), and incubated for 2 nights in 24 well plates at 37° C., 5% CO2. The nonadherent cells were collected and cultured (2×10^4 cells/well/500 μl) in methylcellulose (R&D, Minneapolis, USA) (42%) [as a three-dimension (3D) culture system], which contained 33% StemPro-34 medium (Gibco, USA) enriched with: StemPro supplement (2.6%) (Gibco), insulin (25 μg/ml) (Gibco), transferrin (100 μg/ml) (Gibco), putrescin (60 μg/ml) (Gibco), sodium selenite (30 nM) (Gibco), D-glucose (6 mg/ml) (Sigma), pyruvic acid (30 μg/ml) (Sigma), BSA (Millpore, Illkirch, France) (5 mg/ml), L-glutamine (2 mM) (Biological Industries), 2-mercaptoethanol (0.5 μM) (Gibco), MEM vitamin solution (10 μl/ml) (Gibco, UK), MEM non-essential amino acid solution (10 μl/ml) (Gibco, UK), ascorbic acid (100 μM) (Sigma, China), d-biotin (10 μg/ml) (Sigma), 1% KSR (Gibco, UK), 0.5% Pen/Strep (Biological Industries), human rEGF (20 ng/ml) (Biolegend, CA, USA), human rGDNF (10 ng/ml) (Biolegend), human rLIF (10 ng/ml) (Biolegend) and human r-bFGF (10 ng/ml) (Biolegend). Cells were cultured for 1-16 weeks. Every 1-2 weeks (according to the growth and morphology of the cells), we added 50 μl/well of fresh concentrated (×10) enriched StemPro-34 medium to the cell cultures.
Isolated cells were fixed in cold methanol for 20 minutes. The immunostaining process was similar to that mentioned above for testicular tissue immunostaining after the stage of antigen retrieval. Following the removal of the blocking buffer, the first antibodies were added: Polyclonal rabbit anti-mouse SALL4 (Abcam, Cambridge, UK; 1:400), Polyclonal rabbit anti-human VASA (Santa Cruz 1:100), Polyclonal rabbit anti-human CD9 (Santa Cruz; 1:10), Polyclonal goat anti-human OCT4 (Santa Cruz; 1:50), Polyclonal rabbit anti-human α-6-INTEGRIN (Santa Cruz; 1:100), Polyclonal rabbit anti-human GFR-α □(Santa Cruz; 1:50), monoclonal mouse anti-human PLZF (Santa Cruz; 1:100), Polyclonal rabbit anti-human c-KIT (Santa Cruz; 1:50), Polyclonal rabbit anti-human BOULE (Santa Cruz; 1:25), Polyclonal rabbit anti-mouse CREM-1 (Santa Cruz; 1:30), Polyclonal goat anti-human LDH (Santa Cruz; 1:50), Polyclonal goat anti-mouse PROTAMINE (Santa Cruz; 1:20), Polyclonal rabbit anti-human ACROSIN (Santa Cruz; 1:10), monoclonal mouse anti-human Ki67 (Dianova GmbH, Germany; 1:200), monoclonal rabbit anti-human Ki67 (Cell marque; 1:200). After overnight incubation at 4° C., the slides were washed and treated as mentioned above for testicular tissue immunostaining. […]

Experiment [2] concerns cells isolated from seminiferous tubules of ICR immature (7-day-old) mice. Nature of the experiment: Effect of hormones and retinoic acid on development of mouse spermatogenesis in vitro in methylcellulose culture system (qPCR of markers). The class given is cell-based. Conditions: 10^−8 M, 10^−7 M or 10^−6 M added after two weeks of culture, examined after total four weeks, normal immature mice. On the technique in general: In qPCR the cycle at which signal appears reflects the starting amount.
Procedure: Cells were enzymatically isolated from seminiferous tubules of ICR mice (which were developed by the Institute of Cancer Research, also called CD-1) immature mice (7-day-old mice).
Briefly, cells were cultured (2×10^5 cells/well/500 μl) in MEM medium which contained sodium bicarbonate 7.5%, L-glutamine 200 mM, non-essential amino acids 1%, penicillin/streptomycin and gentamicin 10 mg/ml, and were incubated over 2 nights in 24 wells plate at 37° C., 5% CO2. The nonadherent cells were collected and cultured ([…] cells/well/500 μl) in methylcellulose (42%; R&D, Minneapolis, USA) [as a three-dimension (3D) culture system], which contained the StemPro-34 medium (Gibco, USA) enriched with: 10% KSR (knockout serum replacement, Gibco, USA) and the following growth factors: Glial cell-derived neurotrophic factor (GDNF; 10 ng/ml; Biolegend), Leukemia inhibitory factor (LIF; 10 ng/ml; Biolegend), epidermal growth factors (EGF; 20 ng/ml; Biolegend, CA, USA), bFGF (basic fibroblast growth factor) (10 ng/ml; Biolegend).
Cells were cultured for 4 weeks. Every 1-2 weeks (according to the growth and morphology of the cells) the present inventor added 50 μl/well of fresh concentrated (×10) enriched StemPro-34 medium to the cell cultures. […]

[3] abbreviates: TNFα 20 pg/ml, after culture (14.5 Ws) in MCS, patient 1, immunofluorescence staining.

On to TNFα, for which the “differentiation of the pre-meiotic cells to meiotic cells that express CREM” value in experiment [1] (TNFα 20 pg/ml, patient #1, compared to CT (did not induce CREM)) is “induced the differentiation”. For the same compound, the “growth of premeiotic cells VASA and PLZF, meiotic cells (Boule) and postmeiotic cells (acrosin positive cells)” value in experiment [1] (TNFα 20 pg/ml, patient #1, versus control (CT)) is on record as “maintained/induced growth”. Besides, in experiment [1] (setting [3]), the “ACROSIN (post-meiotic marker) staining” value is “+”, the “BOULE (meiotic marker) staining” value is reported as “+”, the “CREM (meiotic marker) staining” value is reported as “+” and the “PLZF (pre-meiotic marker) staining” value is given as “+”. In experiment [1] (setting [3]), the “SALL4 (pre-meiotic marker) staining” value is “−” and the “VASA (pre-meiotic marker) staining” value is “+”. For the same compound, in experiment [1] (in the presence of TNFα), the “development of colonies in MCS” value was “colonies were developed”.
As to `C[C@]12CC[C@H]3[C@@H](CCC4=CC(=O)CC[C@@]43C)[C@@H]1CC[C@@H]2O` [testosterone], in experiment [2], the “expression of the meiotic/post-meiotic marker ACROSIN” value was “increased”.
